BindingDB's records for doi:10.7270/Q2CV4GM1 (D3R/Abbott, 2015)
Several values for one entry are separate records, joined by “and”; a condition that tells them apart may be missing. Equal values may be shown once.

biological target: T1, Tyrosine-protein kinase SYK [355-635] (Homo sapiens, UniProt P43405); experiment: SYK assay_HTRF
T1 construct: 355-635

Row | SMILES | IC50
1 | CN(c1nc(Nc2ccc3c(cnn3C)c2)ncc1F)c1cccc2[nH]ncc12 [GTC000303A] | 11.5 nM
2 | O=S(=O)(c1ccc(Nc2nccc(Nc3cccc4[nH]ncc34)n2)cc1)N1CCCC1 [GTC000188A] | 1800 nM and 1340 nM
3 | NC(=O)CN(c1nc(Nc2ccc3c(c2)S(=O)(=O)CC3)ncc1F)c1cccc2[nH]ncc12 [GTC000369A] | 198 nM
4 | CCN(c1nc(Nc2ccc(N)c(OC(C)=O)c2)ncc1F)c1cccc2[nH]ncc12 [GTC000348A] | 30.5 nM
5 | CS(=O)(=O)c1cccc(Nc2nccc(N(CCO)c3cccc4[nH]ncc34)n2)c1 [GTC000311A] | 15.3 nM
6 | O=C1CCCN1CCCNS(=O)(=O)Cc1ccc(Nc2nccc(Nc3cccc4[nH]ncc34)n2)cc1 [GTC000202A] | 706 nM
7 | O=C1Nc2ccc(Nc3nccc(Nc4cccc5[nH]ncc45)n3)cc2CO1 [GTC000149A] | 7.21 nM and 25.2 nM
8 | COc1cccc(NC(=O)Cc2ccc(Nc3nccc(Nc4cccc5[nH]ncc45)n3)cc2)c1 [GTC000209A] | 524 nM
9 | Cn1ncc2cc(Nc3nccc(Nc4cccc5[nH]ncc45)n3)ccc21 [GTC000164A] | 58.5 nM and 86.1 nM and 214 nM
10 | COCCCN(c1ccnc(Nc2cccc(S(C)(=O)=O)c2)n1)c1cccc2[nH]ncc12 [GTC000352A] | 23.1 nM and 99.3 nM
11 | CS(=O)(=O)Cc1ccc(Nc2nccc(Nc3cccc4[nH]ncc34)n2)cc1 [GTC000207A] | 232 nM
12 | CCN(c1nc(Nc2ccc3c(c2)S(=O)(=O)N(C)C3)ncc1F)c1cccc2[nH]ncc12 [GTC000289A] | 13.7 nM and 5.32 nM and 16.3 nM
13 | Cn1c(=O)n(C)c2cc(Nc3nccc(Nc4cccc5[nH]ncc45)n3)ccc21 [GTC000158A] | 98.6 nM and 89.1 nM and 244 nM
14 | CN(c1nc(Nc2ccc3cnn(C)c3c2)ncc1F)c1cccc2[nH]ncc12 [GTC000276A] | 5.98 nM
15 | CS(=O)(=O)NCCCCN(c1ccnc(Nc2ccc3[nH]c(=O)[nH]c3c2)n1)c1cccc2[nH]ncc12 [GTC000288A] | 19.8 nM and 5.42 nM
16 | c1ccc(COc2cccc(Nc3nccc(Nc4cccc5[nH]ncc45)n3)c2)cc1 [GTC000173A] | 148 nM and 195 nM and 348 nM and 710 nM
17 | CCN(c1nc(Nc2ccc3cn[nH]c3c2)ncc1Cl)c1cccc2[nH]ncc12 [GTC000328A] | 15.2 nM and 29.6 nM and 50.5 nM and 12.2 nM
18 | O=C1CCCc2cc(Nc3nccc(Nc4cccc5[nH]ncc45)n3)ccc21 [GTC000117A] | 91.2 nM
19 | Cc1ncoc1-c1ccc(Nc2nccc(Nc3cccc4[nH]ncc34)n2)cc1 [GTC000163A] | 149 nM and 221 nM
20 | O=S1(=O)CCc2ccc(Nc3ncc(F)c(N(CC4CCCO4)c4cccc5[nH]ncc45)n3)cc21 (centres undefined) [GTC000278A] | 7.98 nM
21 | COCCCN(c1ccnc(Nc2ccc3[nH]c(=O)[nH]c3c2)n1)c1cccc2[nH]ncc12 [GTC000246A] | 3.6 nM

Row | SMILES | IC50
22 | CNS(=O)(=O)Cc1ccc(Nc2nccc(Nc3cccc4[nH]ncc34)n2)cc1 [GTC000195A] | 426 nM
23 | c1cc(Nc2ccnc(Nc3ccc4[nH]ncc4c3)n2)c2cn[nH]c2c1 [GTC000221A] | 164 nM and 78.2 nM and 235 nM
24 | O=C(Cc1ccc(Nc2nccc(Nc3cccc4[nH]ncc34)n2)cc1)Nc1ccncc1 [GTC000216A] | 828 nM
25 | CN(c1nc(Nc2ccc3[nH]c(=O)[nH]c3c2)ncc1F)c1cccc2[nH]ncc12 [GTC000264A] | 5.3 nM
26 | CCN(c1nc(Nc2ccc3nn[nH]c3c2)ncc1F)c1cccc2[nH]ncc12 [GTC000267A] | 6.27 nM
27 | CCN(c1nc(Nc2cccc(O)c2)ncc1F)c1cccc2[nH]ncc12 [GTC000282A] | 7.94 nM
28 | O=C(O)Cc1cccc(Nc2nccc(Nc3cccc4[nH]ncc34)n2)c1 [GTC000125A] | 118 nM and 493 nM
29 | CCN(c1nc(Nc2cccc(-c3noc(C)n3)c2)ncc1F)c1cccc2[nH]ncc12 [GTC000320A] | 21.4 nM
30 | c1cc(Nc2ccnc(Nc3ccc4oncc4c3)n2)c2cn[nH]c2c1 [GTC000160A] | 48.4 nM and 76 nM
31 | O=C(COc1ccc(Nc2nccc(Nc3cccc4[nH]ncc34)n2)cc1)NCCCO [GTC000192A] | 611 nM
32 | c1cc(Nc2ccnc(Nc3ccc4c(c3)CCO4)n2)c2cn[nH]c2c1 [GTC000111A] | 222 nM
33 | O=c1ccc2cc(Nc3nccc(Nc4cccc5[nH]ncc45)n3)ccc2o1 [GTC000169A] | 421 nM and 242 nM
34 | NC(=O)c1cccc(Nc2nccc(Nc3cccc4[nH]ncc34)n2)c1 [3-{[4-(1H-indazol-4-ylamino)pyrimidin-2-yl]amino}benzamide] | 533 nM
35 | CS(=O)(=O)c1cccc(Nc2ncc(F)c(N(CCCO)c3cccc4[nH]ncc34)n2)c1 [GTC000360A] | 79.4 nM
36 | CN(c1nc(Nc2cccc(S(C)(=O)=O)c2)ncc1F)c1cccc2[nH]ncc12 [GTC000359A] | 87.3 nM
37 | CCN(c1nc(Nc2ccc3c(c2)CCN3C(C)=O)ncc1F)c1cccc2[nH]ncc12 [GTC000319A] | 18.2 nM
38 | CN(c1nc(Nc2ccc3nn[nH]c3c2)ncc1F)c1cccc2[nH]ncc12 [GTC000265A] | 5.6 nM
39 | CCN(c1nc(Nc2ccc3[nH]c(=O)n(C)c3c2)ncc1F)c1cccc2[nH]ncc12 [GTC000321A] | 21.2 nM
40 | OCCN(c1ccnc(Nc2ccc3nn[nH]c3c2)n1)c1cccc2[nH]ncc12 [GTC000232A] | 2.05 nM
41 | CCN(c1nc(Nc2ccc(C)c(S(N)(=O)=O)c2)ncc1F)c1cccc2[nH]ncc12 [GTC000349A] | 35.9 nM
42 | COCCCN(c1nc(Nc2cccc(C(N)=O)c2)ncc1F)c1cccc2[nH]ncc12 [GTC000346A] | 30.3 nM

Row | SMILES | IC50
43 | NS(=O)(=O)c1cccc(Nc2nccc(N(CCCO)c3cccc4[nH]ncc34)n2)c1 [GTC000259A] | 5.02 nM
44 | COCCCN(c1nc(Nc2cccc(S(N)(=O)=O)c2)ncc1F)c1cccc2[nH]ncc12 [GTC000301A] | 12.1 nM
45 | Cn1ncc2cc(Nc3nccc(N(CCCCO)c4cccc5[nH]ncc45)n3)ccc21 [GTC000287A] | 8.05 nM
46 | O=S(=O)(Cc1cccc(Nc2nccc(Nc3cccc4[nH]ncc34)n2)c1)NCCCO [GTC000193A] | 575 nM
47 | CN(c1nc(Nc2cccc(S(N)(=O)=O)c2)ncc1F)c1cccc2[nH]ncc12 [GTC000337A] | 22.8 nM
48 | CCN(c1nc(Nc2cccc(-c3cnco3)c2)ncc1F)c1cccc2[nH]ncc12 [GTC000306A] | 9.02 nM and 16.6 nM and 26.1 nM
49 | CCN(c1nc(Nc2ccc3[nH]c(=O)[nH]c3c2)ncc1F)c1cccc2[nH]ncc12 [GTC000237B] | 1.87 nM and 6.87 nM and 3.76 nM and 3.14 nM and 8.63 nM and 2.75 nM
50 | COC(=O)CCCCN(c1ccnc(Nc2ccc3c(c2)S(=O)(=O)NC3)n1)c1cccc2[nH]ncc12 [GTC000296A] | 5.04 nM and 25.1 nM and 21.6 nM
51 | CN(c1nc(Nc2cccc(C(N)=O)c2)ncc1F)c1cccc2[nH]ncc12 [GTC000366A] | 110 nM
52 | c1cc(Nc2ccnc(Nc3ccc4c(c3)CCC4)n2)c2cn[nH]c2c1 [GTC000142A] | 114 nM and 255 nM
53 | O=C1NS(=O)(=O)c2cc(Nc3nccc(Nc4cccc5[nH]ncc45)n3)ccc21 [GTC000133A] | 17.3 nM and 44.6 nM
54 | O=C1OCc2cc(Nc3nccc(Nc4cccc5[nH]ncc45)n3)ccc21 [GTC000152A] | 68.5 nM and 88.5 nM
55 | O=S1(=O)CCc2ccc(Nc3ncc(F)c(N(CCO)c4cccc5[nH]ncc45)n3)cc21 [GTC000254A] | 4.75 nM
56 | c1cc(Nc2nccc(Nc3cccc4[nH]ncc34)n2)cc(-c2nnn[nH]2)c1 [GTC000130A] | 3.43 nM and 14.3 nM
57 | O=C(Cc1ccc(Nc2nccc(Nc3cccc4[nH]ncc34)n2)cc1)Nc1cccnc1 [GTC000219A] | 543 nM
58 | CC1(C)Oc2ccc(Nc3nccc(Nc4cccc5[nH]ncc45)n3)cc2NC1=O [GTC000145A] | 38.6 nM and 153 nM
59 | Cc1noc(NS(=O)(=O)c2ccc(Nc3nccc(Nc4cccc5[nH]ncc45)n3)cc2)c1C [GTC000187A] | 1380 nM and 971 nM
60 | CNC(=O)Cc1ccc(Nc2nccc(Nc3cccc4[nH]ncc34)n2)cc1 [GTC000218A] | 1260 nM
61 | COCCN(c1ccnc(Nc2ccc3nn[nH]c3c2)n1)c1cccc2[nH]ncc12 [GTC000322A] | 20.5 nM
62 | NS(=O)(=O)c1ccc(Nc2nccc(Nc3cccc4[nH]ncc34)n2)cc1 [GTC000181A] | 65.5 nM and 211 nM and 194 nM and 162 nM and 72.9 nM
63 | NCCCCN(c1ccnc(Nc2ccc3[nH]c(=O)[nH]c3c2)n1)c1cccc2[nH]ncc12 [GTC000280A] | 7.4 nM

Row | SMILES | IC50
64 | CC(C)c1ccc(Nc2nccc(Nc3cccc4[nH]ncc34)n2)cc1 [GTC000128A] | 219 nM
65 | NC(=O)c1cccc(Nc2ncc(F)c(N(CCCO)c3cccc4[nH]ncc34)n2)c1 [GTC000344A] | 31.8 nM
66 | Cn1ncc2ccc(Nc3nccc(Nc4cccc5[nH]ncc45)n3)cc21 [GTC000124A] | 16.8 nM and 21.7 nM
67 | COc1ccc(Nc2nccc(Nc3cccc4[nH]ncc34)n2)cc1 [GTC000135A] | 179 nM and 225 nM and 243 nM and 923 nM
68 | Cc1nc(-c2cccc(Nc3nccc(Nc4cccc5[nH]ncc45)n3)c2)no1 [GTC000148A] | 6.7 nM and 32 nM
69 | O=C(O)c1ccc(Nc2nccc(Nc3cccc4[nH]ncc34)n2)cc1 [GTC000210A] | 100 nM and 72.8 nM and 258 nM and 524 nM
70 | COC(=O)COc1ccc(Nc2nccc(Nc3cccc4[nH]ncc34)n2)cc1 [GTC000199A] | 490 nM
71 | Cc1ncoc1-c1cccc(Nc2nccc(N(CCCCO)c3cccc4[nH]ncc34)n2)c1 [GTC000286A] | 7.64 nM
72 | COCCN(c1ccnc(Nc2ccc3cnn(C)c3c2)n1)c1cccc2[nH]ncc12 [GTC000313A] | 16.6 nM
73 | CNC(=O)CN(c1nc(Nc2ccc3c(c2)S(=O)(=O)NC3)ncc1F)c1cccc2[nH]ncc12 [GTC000358A] | 81.8 nM
74 | O=C1Nc2cc(Nc3nccc(Nc4cccc5[nH]ncc45)n3)ccc2OC1(F)F [GTC000144A] | 13.5 nM and 104 nM
75 | Cn1ncc2ccc(Nc3nccc(N(CCCO)c4cccc5[nH]ncc45)n3)cc21 [GTC000270A] | 6.95 nM
76 | NCCCCCN(c1ccnc(Nc2ccc3c(c2)S(=O)(=O)NC3)n1)c1cccc2[nH]ncc12 [GTC000244A] | 3 nM and 3.31 nM and 5.53 nM
77 | Cc1ccc(NC(=O)c2ccc(Nc3nccc(Nc4cccc5[nH]ncc45)n3)cc2)cc1 [GTC000183A] | 546 nM and 618 nM
78 | CCN(c1nc(Nc2ccc3c(c2)S(=O)(=O)NC3)ncc1Cl)c1cccc2[nH]ncc12 [GTC000222A] | 12.7 nM and 15.6 nM and 9.33 nM
79 | COCCCN(c1nc(Nc2ccc3c(c2)S(=O)(=O)NC3)ncc1F)c1cccc2[nH]ncc12 [GTC000228C] | 2.45 nM and 1.1 nM and 2.07 nM and 1.38 nM and 3.35 nM and 1.47 nM and 2.08 nM and 7 nM and 4.35 nM and 2.02 nM and 5.36 nM and 2 nM and 3.66 nM and 2.13 nM and 2.86 nM
80 | Cn1ncc2cc(Nc3nccc(N(CCCO)c4cccc5[nH]ncc45)n3)ccc21 [GTC000225A] | 20.6 nM and 18.5 nM
81 | NC(=O)c1ccc(Nc2nccc(Nc3cccc4[nH]ncc34)n2)cc1 [GTC000108B] | 100 nM and 218 nM and 51.4 nM and 59.8 nM
82 | CCNC(=O)c1ccc(Nc2ncc(F)c(N(CC)c3cccc4[nH]ncc34)n2)cc1 [GTC000312A] | 16.1 nM
83 | CCN(c1nc(Nc2ccc3[nH]c(=O)[nH]c3c2)ncc1Cl)c1cccc2[nH]ncc12 [GTC000290A] | 6.7 nM and 12.6 nM
84 | c1cc(Nc2ccnc(Nc3ccc4c(c3)OCO4)n2)c2cn[nH]c2c1 [GTC000155A] | 40.5 nM and 65.9 nM and 77.6 nM and 267 nM
